# Source: patent publication US20010021514A1, “Luminescent metal-ligand complexes” (priority 1999, published 2001)
# Where two headings read alike, the source gives them in different places.
# What was measured:
# [1] = background statement on known luminophores; cited from earlier work
# [2] = Photoluminescence properties of the probe (spectra, Stokes' shift, lifetime, extinction); format: physicochemical
# From the text: Photoluminescence may be characterized by a number of parameters, including extinction coefficient, excitation and emission spectrum, Stokes' shift, luminescence lifetime, and quantum yield. An extinction coefficient is a wavelength-dependent measure of the absorbing power of a luminophore. An excitation spectrum is the dependence of emission intensity upon the excitation wavelength, measured at a single constant emission wavelength. An emission spectrum is the wavelength distribution of the emission, measured after excitation with a single constant excitation wavelength. A Stokes' shift is the difference in wavelengths between the maximum of the emission spectrum and the maximum of the absorption spectrum. A luminescence lifetime is the average time that a luminophore spends in the excited state prior to returning to the ground state. A quantum yield is the ratio of the number of photons emitted to the number of photons absorbed by a luminophore.
# [3] = Intrinsic polarization from excitation polarization spectra in vitrified solution; format: physicochemical; settings: for fundamental anisotropy r0: corresponding to the intrinsic polarization; for intrinsic polarization P0: excitation polarization spectra in vitrified solution (glycerol: water=6:4; −55° C.)
# From the text: Aspects of the invention include the use of selected long-lifetime metal-ligand complexes in luminescence polarization assays. Here, as elsewhere in the application, polarization assays encompass any assays involving detection of polarized light, including steady-steady and time-resolved assays, and computation of polarization and anisotropy functions, among others. […] Here, the invention was used without limitation to monitor interactions between human serum albumin (HSA) and goat-anti-HSA (IgG) antibodies. The HSA was labeled with a ruthenium-ligand complex polarization probe, Sunnyvale Red™ (SVR™), as described elsewhere in this application. […] These values were determined by measuring the excitation polarization spectra in vitrified solution (glycerol: water=6:4; −55° C.).
Compound,luminescence lifetime (general statement) [1],Stokes' shift [2],emission maximum [2],excitation maximum [2],luminescence lifetime [2],excitation maximum ([2]; listed as SVR),luminescence lifetime ([2]; listed as SVR),extinction coefficient E(SVR) ([2]; used with A479 for dye concentration),fundamental anisotropy r0 [3],fundamental anisotropy r0 ([3]; listed as SVR),intrinsic polarization P0 [3],intrinsic polarization P0 ([3]; listed as SVR)
"O=C([O-])c1ccnc(-c2cc(C(=O)[O-])ccn2)c1.[Ru+2].c1ccc(-c2ccccn2)nc1.c1ccc(-c2ccccn2)nc1 [Ru(bpy)2dcbpy, ruthenium 2,2′-dibipyridyl 4,4′-dicarboxyl-2,2′-bipyridine]",roughly 400 nanoseconds,–,–,–,–,–,–,–,–,–,–,–
Ru(bpy)2(dacbpy)-ITC [Sunnyvale Red™],–,~200 nm,670 nm,488 nm,about 360 ns,487 nm,360 ns,"~15,000",about 0.28,0.27,about 0.37,0.36
